Results from EP0218400A1, “Assay methods for chemotherapeutic agents” (DAMON BIOTECH, INC., priority 1985, dated 1987).
Read-outs that look alike come from different tables or passages of the source.

Columns and labels:
[1] = test system: Human T cell lymphoma (MOLT-4) cells; assay: In vitro drug pretreatment of encapsulated cells, then growth in the peritoneal cavity of mice; assay type: in vivo
Method: The encapsulated tumors are preferably incubated at 37° C in medium for 1 to 2 hours. A 25 percent (v/v) suspension can then be prepared (preferably without bovine serum). The suspension can be inoculated in the peritoneal cavity of the host animal (i.e., with a 16 gauge needle).
(§1) In the experiments that follow, the drugs and other agents tested were administered to the host animal by injection at the various times called for in the protocol being tested. At various periods after treatment, the mice were killed by cervical dislocation. The peritoneal cavity of each mouse was washed with PBS or medium and floating microcapsules were aspirated using a large bore plastic Pasteur pipette. Microcapsules were transferred to 15 ml tubes and washed 3 to 4 times with PBS to remove host peritoneal cells. The washed microcapsules were aspirated into 1 ml serological pipettes, allowed to sediment, and the volume of packed microcapsules was determined. Microcapsules were then transferred to a glas dounce homogenizer (7 ml volume) and disrupted with 3 strokes of an A-tolerance plumger. Cells suspensions were filtered through nylon mesh to remove the disrupted membranes. The suspensions containing tumor cells were centrifuged and the pellet was resuspended in 0.25 to 0.5 ml of complete medium. After mixing equal volumes of cell suspension and trypan blue, viable cell counts were determined using a hemocytometer.
(§2) The number of tumor cells per 1 ml of packed microcapsules was determined as follows: a = ? where b = total number of tumor cells in the suspension, and c = total volume of microcapsules used for the preparation of this suspension.
(§3) By comparing the number of tumor cells in 1 ml of microcapsules derived from non-treated and drug-treated mice, the percent inhibition of tumor cell growth was calculated: [formula] where ac = number of tumor cells from the non-treated control microcapsules, and ae = number of tumor cells from the drug treated microcapsules.
Human T cell lymphoma (MOLT-4) cells were encapsulated according to the procedures described above and incubated in vitro in RPMI I640 medium supplemented with 10 percent fetal calf serum, glutamine and antibiotics for one hour of 37°C. During incubation they were exposed to various concentrations of 1,3-B (2-chloroethyl)-1-nitrosourea (BCNU), 5-fluorouracil (5-FU) and adriamycin. The microcapsules were then washed and implanted into the peritoneal cavity (i.p.) of C57BL/6 mice (Animal Production Area NCI-Frederick Cancer Research Facility) using #18-14 needles. After seven days the mice were sacrificed and their peritoneal cavities were washed with PBS and aspirated to collect the microcapsules in a Pasteur pipette. The microcapsules were washed several times from the host peritoneal cells. The microcapsules from the individual mice were counted by transferring them into wells of a 96 well microplate. Using an inverted microscope, the numbers of microcapsules in each well were counted. Each well was washed out and microcapsules were transferred into the glass homogenizer.
Microcapsules were then disrupted, and the suspension was filtered, centrifugated and reconstituted with PBS. The concentration and total number of cells were counted using a hemocytometer.

[2] = test system: MOLT-4 human lymphoma cells; assay: In vivo sensitivity of encapsulated MOLT-4 cells in nude mice, NCI schedule; conditions: Adriamycin 6 mg/kg, 15 days after transplantation
Method: as §1, §2, §3
In the next experiment various drugs were administered in vivo according to schedules and doses typically used for screening antitumor effects of the drugs at the National Cancer Institute, Developmental Therapeutics program.
MOLT-4 human lymphoma cells were encapsulated and transplanted into peritoneum of nude mice. Doses of various drugs were applied i.v. at 1, 5 and 9 days after tumor cell transplantation.

[3] = test system: human colon adenocarcinoma (HT-29) cells; assay: In vivo growth of encapsulated HT-29 cells in C57BL/6 mice
Method: as §1, §2, §3
A second human cancer cell line was also used to further analyze in vivo effects of different drugs on the growth of tumors. Encapsulated human colon adenocarcinoma (HT-29) cells were again transplanted into C57BL/6 mice and various drugs were administered after 3 days either by intravenous or by intraperitoneal injection. Animals were sacrificed after 4 days and number of cells per capsule were counted to calculate inhibition rates for the various treatment procedures. […] In fact, 5-FU is a preferred chemotherapeutic agent for patients with gastrointestinal malignancies.

human Melanoma LOX cells = assay: In vivo susceptibility of encapsulated LOX melanoma cells in nude mice; conditions: for sensitivity of encapsulated LOX cells to the treatment (in words): i.v. days 1, 5, 9; for No. of viable tumor cells per 1 ml. of capsules: i.v. days 1, 5, 9, Adriamycin 6, BCNU 20, CY 100, 5-Fu 60 mg/kg
Method: as §1, §2, §3
In this series of experiments, cells of a fourth human cancer type, Melanoma LOX cells, were used. LOX cells have recently been proposed as the model for experimental treatment at the NCI Development Therapeutics Program. Following i.p. inoculation of the suspension of LOX Melanoma cells into nude mice, various drugs were administered i.v. and survival of the treated mice was determined (Schoemaker et al., Proceeding American Association for Cancer Research, 26, 1302, 1985) (mice transplanted with the non-encapsulated tumor cells were considered tumor-free if they survived during 3 months of observation). In parallel experiments encapsulated LOX Melanoma cells were transferred into nude mice and drugs were inoculated i.v. 1, 5 and 9 days at the dose and schedule utilized by the Dr. Shoemaker's procedure.

LOX Melanoma cells = conditions: i.v.; Adriamycin 6, BCNU 20, CY 100, 5-Fu 60 mg/kg; survival during 3 months of observation; nude mice; cited from earlier work
MOLT-4 lymphoma cells = assay: In vivo inhibition of encapsulated Molt-4 lymphoma growth in C57BL/6 mice; set-up: species or system human
Method: as §1, §2, §3
MOLT-4 lymphoma cells were also used in an in vivo assay. As before, the MOLT-4 cells were encapsulated and transplanted i.p. into C57BL/6 mice. On day 1 following the transplantation of the encapsulated cells, the mice were treated i.v. intravenous (i.v.) with BCNU, adriamycin or cyclophosphamide (CY). This approach allowed the testing of cyclophosphamide (CY) which is inefficient in vitro because it must be metabolized to obtain an active cytotoxic derivative. Ten days after transplantation, the encapsulated cells were retrieved and the tumor cells contained therein were counted. […]

[4] = test system: human lung carcinoma A549 cells; assay: In vivo susceptibility of encapsulated A549 cells; conditions: i.v. days 2, 5, 9; for No. of tumor cells per 1 ml of capsules / percent Inhibition: Adriamycin 6, BCNU 20, CY 100 mg/kg
Method: as §1, §2, §3
The sensitivity of human lung carcinoma A549 cells to the drugs was assessed 12 and 14 days after transplantation of encapsulated tumor cells. The treatments were applied i.v. 2, 5 and 9 days after microcapsule transplantation (Table 5).

Original P388 cells = assay: In vivo growth of encapsulated original P388 lymphoma cells in nude mice; conditions: for inhibition at 100 mg/kg: Mus musculus, P388, iv
Method: as §1, §2, §3
(§4) Since drug-resistance is one of the most important causes of failure in chemotherapy, it is crucial that a predictive assay be able to distinguish between effective and non-effective drugs for particular tumors. […] One day later the mice received by i.v. administration Adriamycin (6 mg/kg), Vinblastin (1 mg/kg) or Cyclophosphamide (100 mg/kg). Five days after administration some of the mice were sacrificed, the microcapsules were recovered and the numbers of tumor cells inside the capsules were determined. The remaining mice received a second administration and the microcapsules were recovered from the remaining mice 3 days afterwards. The results are shown in Table 7 and correlate well with the known characteristics of P388 cell line and its variant.

P388 Resistant Cells = assay: In vivo growth of encapsulated adriamycin-resistant P388 lymphoma cells in nude mice; conditions: for inhibition at 100 mg/kg: Mus musculus, P388, iv
Method: as §1, §2, §3, §4

[5] = 25 µg/ml in vitro for one hour, then 7 days i.p. in C57BL/6 mice
[6] = 100 µg/ml in vitro for one hour, then 7 days i.p. in C57BL/6 mice
[7] = Mus musculus, MOLT-4, iv, 360 h, i.v. days 1, 5, 9, Cyclophosphamide 100 mg/kg, 5-Fu 60 mg/kg, nude mice
[8] = i.v. days 1, 5, 9, Cyclophosphamide 100 mg/kg, 5-Fu 60 mg/kg, nude mice
[9] = Mus musculus, HT-29, ip, i.p. 3 days after transplantation, 5-Fu 150 mg/kg, CY 250 mg/kg, Adriamycin 20 mg/kg, 4 days
[10] = i.p. 3 days after transplantation, 5-Fu 150 mg/kg, CY 250 mg/kg, Adriamycin 20 mg/kg, 4 days
[11] = Mus musculus, MOLT-4, iv, i.v. on day 1, Adriamycin 10 mg/kg, BCNU 100 mg/kg, CY 200 mg/kg, capsules retrieved ten days after transplantation
[12] = i.v. on day 1, Adriamycin 10 mg/kg, BCNU 100 mg/kg, CY 200 mg/kg, capsules retrieved ten days after transplantation
[13] = 5 + 3 days after treatment (3 days after second administration), Adriamycin 6, Vinblastin 1, Cyclophosphamide 100 mg/kg i.v.
[14] = 5 days after treatment, i.v. one day after inoculation, Adriamycin 6, Vinblastin 1, Cyclophosphamide 100 mg/kg
[15] = 72 h, 5 + 3 days after treatment (3 days after second administration), Adriamycin 6, Vinblastin 1, Cyclophosphamide 100 mg/kg i.v.

SMILES: O=c1[nH]cc(F)c(=O)[nH]1 [5-Fu, 5-fluorouracil]
- No. of tumor cells per capsule [1, 5]: 3 x 10^3
- No. of tumor cells per capsule [1, 6]: 10^2
- inhibition at 25 µg/mL ([1]; Mus musculus, MOLT-4, ip, 25 µg/ml in vitro for one hour, then 7 days i.p. in C57BL/6 mice, read-out: % Inhibition): 40%
- inhibition at 100 µg/mL ([1]; Mus musculus, MOLT-4, ip, 100 µg/ml in vitro for one hour, then 7 days i.p. in C57BL/6 mice, read-out: % Inhibition): 98%
- inhibition of tumor cell proliferation (in words) ([2]; 5-FU 60 mg/kg i.v. days 1, 5, 9): significantly less efficient
- inhibition at 60 mg/kg [2, 7]: 30%
- No of viable tumor cells per 1 ml of capsules [2, 8]: 41.0 x 10^6
- inhibition at 150 mg/kg [3, 9]: 70%
- No. of cells per capsule [3, 10]: 0.6 x 10^4
- Total No. of tumor cells [3, 10]: 0.6 x 10^6
- sensitivity of encapsulated HT-29 cells (in words) ([3]; in vivo): more sensitive to 5-FU than to the other drugs tested
- sensitivity of encapsulated LOX cells to the treatment (in words) (human Melanoma LOX cells): least efficient
- No. of viable tumor cells per 1 ml. of capsules (human Melanoma LOX cells): 29 x 10^5
- % survived mice transplanted with nonencapsulated tumor cells (LOX Melanoma cells): 0%

SMILES: O=NN(CCCl)C(=O)NCCCl [BCNU, 1,3-B (2-chloroethyl)-1-nitrosourea]
- No. of tumor cells per capsule ([1]; 6 µg/ml in vitro for one hour, then 7 days i.p. in C57BL/6 mice): 1 x 10^4
- No. of tumor cells per capsule [1, 5]: 1 x 10^4
- No. of tumor cells per capsule [1, 6]: 0.1 x 10^4
- inhibition at 6 µg/mL ([1]; Mus musculus, MOLT-4, ip): 86%
- inhibition at 25 µg/mL ([1]; Mus musculus, MOLT-4, ip): 86%
- inhibition at 100 µg/mL ([1]; Mus musculus, MOLT-4, ip): 98%
- inhibition at 100 mg/kg (MOLT-4 lymphoma cells; [11]): 55%
- No. of cells per capsule (MOLT-4 lymphoma cells; [12]): 1222
- Total No. of tumor cells (MOLT-4 lymphoma cells; [12]): 27 x 10^4
- No. of tumor cells per 1 ml of capsules ([4]; 12 days after transplantation): 7.0 x 10^5
- percent Inhibition ([4]; 12 days after transplantation): 88%
- No. of tumor cells per 1 ml of capsules ([4]; 14 days after transplantation): 15.7 x 10^5
- percent Inhibition ([4]; 14 days after transplantation): 81%
- reduction of the numbers of tumor cells (in words) [4]: more efficient in this respect than CY
- sensitivity of encapsulated LOX cells to the treatment (in words) (human Melanoma LOX cells): most sensitive
- No. of viable tumor cells per 1 ml. of capsules (human Melanoma LOX cells): 2 x 10^5
- % survived mice transplanted with nonencapsulated tumor cells (LOX Melanoma cells): 50%

SMILES: O=P1(N(CCCl)CCCl)NCCCO1 (centres unmarked) [CY, cyclophosphamide]
- inhibition at 200 mg/kg (MOLT-4 lymphoma cells; [11]): 93.7%
- reduction of the number of viable tumor cells in the capsules (in words) (MOLT-4 lymphoma cells; i.v. on day 1, ten days after transplantation): more effective than BCNU
- No. of cells per capsule (MOLT-4 lymphoma cells; [12]): 171
- Total No. of tumor cells (MOLT-4 lymphoma cells; [12]): 10 x 10^4
- inhibition at 100 mg/kg [2, 7]: 97%
- No of viable tumor cells per 1 ml of capsules [2, 8]: 1.9 x 10^6
- inhibition at 250 mg/kg [3, 9]: 20%
- No. of cells per capsule [3, 10]: 1.6 x 10^4
- Total No. of tumor cells [3, 10]: 1.1 x 10^6
- No. of tumor cells per 1 ml of capsules ([4]; 12 days after transplantation): 13.5 x 10^5
- percent Inhibition ([4]; 12 days after transplantation): 78%
- No. of tumor cells per 1 ml of capsules ([4]; 14 days after transplantation): 39.0 x 10^5
- percent Inhibition ([4]; 14 days after transplantation): 53%
- sensitivity of encapsulated LOX cells to the treatment (in words) (human Melanoma LOX cells): most sensitive
- No. of viable tumor cells per 1 ml. of capsules (human Melanoma LOX cells): 0.7 x 10^5
- No. cells/ml (Original P388 cells; [13]): 1.3 x 10^6
- No. cells/ml (Original P388 cells; [14]): 0.4 x 10^6
- inhibition at 100 mg/kg (Original P388 cells; [15]): 97%
- inhibition at 100 mg/kg (Original P388 cells; [14]): 98%
- No. cells/ml (P388 Resistant Cells; [13]): 1.1 x 10^6
- No. cells/ml (P388 Resistant Cells; [14]): 0.4 x 10^6
- inhibition at 100 mg/kg (P388 Resistant Cells; [15]): 96%
- inhibition at 100 mg/kg (P388 Resistant Cells; Cyclophosphamide 100 mg/kg i.v., both time points): 96 to 98%
- inhibition at 100 mg/kg (P388 Resistant Cells; [14]): 98%
- % survived mice transplanted with nonencapsulated tumor cells (LOX Melanoma cells): 40%

SMILES: CCC1(O)CC2CN(CCc3c([nH]c4ccccc34)C(C(=O)OC)(c3cc4c(cc3OC)N(C)C3C(O)(C(=O)OC)C(OC(C)=O)C5(CC)C=CCN6CCC43C65)C2)C1 (centres unmarked) [Vinblastin]
- % Inhibition (Original P388 cells; [13]): 89%
- No. cells/ml (Original P388 cells; [13]): 6 x 10^6
- % Inhibition (Original P388 cells; [14]): 60%
- No. cells/ml (Original P388 cells; [14]): 9 x 10^6
- % Inhibition (P388 Resistant Cells; [13]): 21%
- No. cells/ml (P388 Resistant Cells; [13]): 23 x 10^6
- % Inhibition (P388 Resistant Cells; [14]): 12%
- No. cells/ml (P388 Resistant Cells; [14]): 15 x 10^6
- inhibiting the growth of the drug-resistant variant (in words) (P388 Resistant Cells; Adriamycin 6 mg/kg, Vinblastin 1 mg/kg i.v.): Neither Adriamycin nor Vinblastin in the doses administered was effective
